Reference: patent US20080199899A1, “Method For Screening Modulators of Mitochondrial Functioning and New Modulators Obtained” (priority 2002, published 2008)
Non-standard residues stand in square brackets, D forms with d. Residues, ends and D or L forms follow the SMILES beside them. Phe(ol) = N[C@H](CO)Cc1ccccc1; Aib = CC(C)(N)C(=O)O

Legend:
[1] = system: purified mouse liver mitochondria; assay: FCM analysis of PTP-dependant and PTP-independent MMP after pre-treatment with inhibitors; format: biochemical; settings: for effect on alamethicin induced MMP (in words): 50 μM BA, 10 μM CsA or 10 μM Ruthenium red, then alamethicin 5 μg/ml
Method: Mitochondrial Membrane Permeabilization (MMP) was induced by 1-30 μM Calcium (CaCl2, MERCK), and 5 μg/ml Alamethicin (SIGMA). Ruthenium Red (SIGMA) and the PTP inhibitor Cyclosporine A (CSA, BIOMOL) were added at 10 μM 4 minutes before the addition of the MMP-inducing agents. The uncoupler carbonyl cyanide m-chlorophenylhydrazone (mClCCP, SIGMA) was used at 20 μM to completely collapse A m.
Fixed-time analyses were performed on mitochondrial samples containing 10 μg proteins in 100 μl of swelling buffer. Samples were submitted to MPP-inducing reagents for 30 min at 25° C. Samples were immediately analyzed by flow cytometry, and data from 20.000 mitochondria were recorded. The percentage of specific swelling determined on forward scatter was calculated as follows;
Fixed-time detection of ΔΨm was performed on mitochondrial samples containing 10 μg proteins in 100 μl of swelling buffer. Samples were submitted to MPT-inducing drugs for 15 min at 25° C., and JC-1 was added at 800 nM for 15 min at 37° C. in the dark. Samples were immediately analyzed by flow cytometry, and data from 20.000 mitochondria (gated on FSC-SSC parameters) were recorded. This assay permitted to quantify the percentage of highly energized mitochondria (with both orange and green fluorescence) and depolarized mitochondria (with green fluorescence only) as depicted in part C2 of FIG. 1.
Mitochondria were exposed 5 minutes to 50 μM BA, 10 μM Csa, or 10 μM Ruthenium red followed by 30 min treatment with Ca^2+ (30 μM) or alamethicin (5 μg/ml). Then, mitochondria were subjected to FCM analysis of ΔΨm (JC-1 orange fluorescence) and SSC (Mean+/−SD; n=3).

[2] = system: purified mouse liver mitochondria; assay: Real-time flow cytometry (FCM) analysis of mitochondrial morphology (FSC/SSC) on isolated mitochondria; format: biochemical; settings: for changes of mitochondrial size (FSC) and structure (SSC) (in words): isolated mitochondria, 1-30 μM Ca2+, 20 μM CCCP, alamethicin 5 μg/ml; for induction of MMP / activity on isolated mitochondria (in words): real time test on isolated mitochondria
Method: (§1) Liver mitochondria were isolated from 3-4 weeks old Balb-c mice (IFFA CREDO, Saint Germain sur l'Arbresle, France). Animals were fasted overnight before being killed by […] dislocation. Liver mitochondria were prepared as described (Jacotot, 2000). All steps were carried out at 4° C. Finally, the organelles were resuspended in ‘swelling buffer’, composed by 200 mM sucrose, 5 mM succinate, 10 mM Tris-MOPS (pH 7.4), 1 mM H3PO4, 2 μM Rotenone, and 10 μM EGTA at pH=7.4. Spectrophotometric and flow cytometric analyses were performed in this buffer. The protein content of isolated mitochondria was determined by the Bradford assay.
Fluorescence-activated flow cytometry was performed using a 3-color FACSCalibur cytometer equipped with a 15 mW air-cooled 488 nm argon laser (Becton Dickinson, San Jose, Calif.). Mitochondria analyses were performed after appropriate settings of the Forward angle light scatter (FSC)—Side angle light scatter (SSC) detectors (see FIG. 1). Discrimination between mitochondria and cellular debris and noise background was performed by an appropriate gating on FSC-SSC scatter plots (FIG. 1) (Radcliff G, Jaroszeski M J 1998 Methods Mol Biol 91:1-24 Basics of flow cytometry). Systematic confirmation of the validity of this gating was obtained by a labeling of mitochondria with the ΔΨm-insensitive mitochondrial dye MitoTracker® Green (MTG, Molecular Probes, Eugene, Oreg.) (Jacotot et al., 2001). Briefly mitochondria (1.5 μg proteins) were respuspended in 400 μl swelling buffer containing 200 nM MTG for 15 min at room temperature. The organelles were immediately analyzed on the cytometer with the CellQuest Pro software (Becton Dickinson). MTG fluorescence was collected in the FL-1 channel (530+/−15 nm) and analyzed in logarithmic amplifier mode, using the PMT at a voltage adjusted to 907. Data from 20,000 gated mitochondria were recorded and analyzed.
Mitochondrial size was analyzed through the light scattered by the organelles at low angle using the Forward scatter (FSC) photodiode. Signals were collected using the E-00 setting, with a logarithmic amplification gain of 5.41. Mitochondrial structure was evaluated by the light scattered in the perpendicular direction. It was assessed by the sensitive Side scatter (SSC) photomultiplier tube (PMT), using a voltage of 581, and a linear amplification gain adjusted to 4.27. The morphological changes related to swelling of purified mitochondria were monitored by the increase in mitochondrial size (FSC) and the decrease in the organelle structure (SSC) using the CellQuest Pro software. The FSC/SSC ratio was calculated by the FCS Assistant software and permitted to integrate both variations in size and structure into only one parameter.
Real-time experiments were performed on mitochondrial samples containing 1.5 μg proteins in 800 μl (=2 ng/µl) of swelling buffer. Samples were acquired on the flow cytometer for 5 minutes to record basal morphological criteria. Then reagents were added to samples, and variations in light scattering were recorded for the following 15 minutes. The sample flow rate was settled to 12 μl+/−3 μl/min for both fixed- and real-time analyses.
Swelling curves were obtained after plotting FSC or SSC parameters versus time, and division of the time scale into discrete periods of 1 minute. The mean FSC and SSC of mitochondria from every period were calculated by the CellQuest Pro software, and were exported into the Microsoft Excel software.

[3] = system: purified mouse liver mitochondria; assay: Real-time FCM analysis of mitochondrial transmembrane potential (ΔΨm) with JC-1; format: biochemical; settings: JC-1 loaded mitochondria; 20 μM mClCCP, 30 μM Ca2+ or 5 μM Alamethicin
Method: as §1
Mitochondrial transmembrane potential (ΔΨm) was assessed by 5,5′,6,6′,-tetracholoro-1,1,3,3′-tetraethylbenzimidazolyl carbocyanine iodide (JC-1, Molecular Probes) incorporation. This potential-sensitive cationic dye accumulates in the mitochdndrial matrix according to the Nernst equation (Reers et al., 1991). JC-1 green fluorescence, associated with JC-1 monomers was collected in the FL-1 channel. JC-1 orange fluorescence, associated with the formation of J-aggregates was collected in the FL-2 channel (585+/−21 nm) (Reers et al, 1991). Both fluorescences were recorded in logarithmic amplifier mode, using the PMT at a voltage adjusted to 907 and 622 respectively. Spectral overlap was avoided by adjusting compensation network as follows: FL1-18.5% FL2 and FL2-25.4% FL1. The JC-1 orange/green fluorescence ratio was calculated with the FCS Assistant software.
Real-time monitoring of ΔΨm was performed on mitochondrial samples containing 1.5 μg proteins in 400 μl of swelling buffer. […] Then drugs were added to the sample, and ΔΨm variations were recorded for the following 16 minutes. Depolarization curves were drawn as previously indicated for swelling curves; the time scale was divided into discrete periods of 1 minute and the mean of JC-1 orange and JC-1 green fluorescence of the corresponding mitochondrial subsets was calculated by the CellQuest Pro software and exported into the Microsoft Excel software.

[4] = system: mammary adenocarcinoma MDA-MD-231 cells; assay: Apoptosis by FACS analysis (ΔΨm loss and cell membrane permeability), adenocarcinoma cells; format: cell-based, human; settings: Adenocarcinoma MDA-MD231 cells; 24 hours incubation with 5 to 20 μM peptide
Jurkat cells = assay: Apoptosis by FACS analysis (ΔΨm loss and cell membrane permeability), Jurkat cells; format: cell-based, human; settings: 24 hours incubation with 5 to 20 μM peptide
HeLa cells = assay: Apoptosis of HeLa cells by fluorescent microscopy or FACS; format: cell-based, human; settings: 5 or 10 μM, 24 or 48 h
Method: Characterization of apoptosis induced on cultured human cells by treatment with MMP inducing peptides. The example shown relates to peptide seq. ID no 3 […]. […] The peptide was then tested on cell: the HeLa cells in exponential growth phase were treated with peptide or mock treated, then analyzed by fluorescent microscopy or FACS to ascertain apoptosis.
Caspase-3 activation was performed using a fluorescent inhibitor of caspase-3 (FLICA, FAM-DEVD-FMK) from the CaspaTag™ kit (Intergen). The loss of plasma membrane integrity occurring during apoptosis of HeLa cells was determined by 7-Amino Actinomycin D. (7-AAD) incorporation (SIGMA). […] 7-AAD was added to cells at 37° C. for 15 min. Cells were trypsinized, resuspended in PBS and immediately acquired on the FACSCalibur. FAM-DEVD-FMK related fluorescence was detected using the Fl-1 channel. 7-AAD fluorescence was collected in the Fl-3 channel (>650 nm).
HeLa cells were stained by […] for 15 minutes and observe d using a DM IRB inverted fluorescence microscope (Leica).
HeLa cells were incubated for 24 or 48 h with 5 or 10 μM of peptide Seq. ID no 3 or left untreated. A. Cells were then stained with JC-1 and Hoechst dyes. […] B. Fluorescence microscopy of the cells, after 24 hours incubation with or without 5 μM peptide and staining with JC-1 dye. […]

[5] = system: purified mouse liver mitochondria; format: biochemical; settings: FIG. 9A
Method: as §1
Large amplitude swelling was determined with Ultrospec 3300 pro […] (Amersham Pharmacia Bioech, Cambridge, England) by measuring Absorbance at 545 nm (A545) (Bernardi et al., 1992). […] Basal absorbance was recorded for 4 minutes, MPP-inducing reagents were added to samples and large amplitude swelling was monitored by the decrease in absorbance for the following 16 minutes. Data were recorded using the Data capture software (Excel, Uppsala, Sweden). […] Percentages of specific swelling were calculated as follows: (ACa2+−AReagent)×100/(ACa2+−Ainit) were ACa2+, AReagent and Ainit correspond to the absorbance value obtained for CaCl2-treated, reagent-treated and pre-treated mitochondria respectively.

isolated mitochondria = assay: Cytochrome C release from isolated mitochondria by western blot on the supernatant; format: biochemical, mouse; settings: 10 μM peptide, 30 minutes; FIG. 9B
Method: B. Cytochrome C release: untreated mitochondria (1), or treated with 5 μM Alamethicin (2) or 10 μM peptide seq. ID No 2 during 30 minutes were assayed for cytochrome C release by western blot on the supernatant.

[6] = 50 μM BA or 10 μM CsA 5 min, then 30 μM Ca2+ 30 min

N.N.N.N.N.N.N.N.N.N.N.N.N.N.[Cl-].[Cl-].[Cl-].[Cl-].[Cl-].[Cl-].[O-2].[O-2].[Ru+3].[Ru+3].[Ru+4] [Ruthenium red]
inhibition of Ca2+ induced SSC decrease ([1]; 10 μM Ruthenium red 5 min, then 30 μM Ca2+ 30 min): 80%
inhibition of Ca2+ induced ΔΨm loss ([1]; 10 μM Ruthenium red 5 min, then 30 μM Ca2+ 30 min, JC-1 orange fluorescence): 80%
effect on alamethicin induced MMP (in words) [1]: not affected

N#CC(C#N)=NNc1cccc(Cl)c1 [CCCP, carbonyl cyanide meta-chlorophenylhydrazone]
changes of mitochondrial size (FSC) and structure (SSC) (in words) [2]: low but significant granularity (SSC) decrease without detectable size (FSC) changes
changes of JC-1 orange fluorescence (ΔΨm) (in words) [3]: rapid decrease in JC-1 orange fluorescence

EHWSYWLRPGGGGGSLLFIHFRIGCRHSRIG [SEQ ID N^o 11]
% of apoptotic cells [4]: 92%
% of apoptotic cells (Jurkat cells): 18%

[Ca+2] [Calcium]
changes of mitochondrial size (FSC) and structure (SSC) (in words) [2]: dose-dependent SSC decrease and FSC increase
changes of JC-1 orange fluorescence (ΔΨm) (in words) [3]: decrease in JC-1 orange fluorescence

CC(=O)NC(C)(C)C(=O)N1CCC[C@H]1C(=O)NC(C)(C)C(=O)N[C@@H](C)C(=O)NC(C)(C)C(=O)N[C@@H](C)C(=O)N[C@@H](CCC(N)=O)C(=O)NC(C)(C)C(=O)N[C@H](C(=O)NC(C)(C)C(=O)NCC(=O)N[C@@H](CC(C)C)C(=O)NC(C)(C)C(=O)N1CCC[C@H]1C(=O)N[C@H](C(=O)NC(C)(C)C(=O)NC(C)(C)C(=O)N[C@@H](CCC(=O)O)C(=O)N[C@@H](CCC(N)=O)C(=O)N[C@H](CO)Cc1ccccc1)C(C)C)C(C)C [alamethicin] (Ac-[Aib]P[Aib]A[Aib]AQ[Aib]V[Aib]GL[Aib]PV[Aib][Aib]EQ[Phe(ol)])
changes of mitochondrial size (FSC) and structure (SSC) (in words) [2]: simultaneous FSC increase and SSC decrease
changes of JC-1 orange fluorescence (ΔΨm) (in words) [3]: decrease in JC-1 orange fluorescence

RKKRRQRRRCGGLANKKGAWLDSTKATRYLVKTESWILRN [SEQ ID N^o 4]
apoptosis of HeLa cells (in words) (HeLa cells): mitochondrio-toxic activity

RKKRRQRRRCGGLETRTETWMSSEGAWKQIQKVETWALRH [SEQ ID N^o 3]
specific swelling of isolated mitochondria (in words) [5]: dose-dependant specific swelling
release of Cytochrome C from isolated mitochondria (isolated mitochondria): release of Cytochrome C
apoptosis of HeLa cells (in words) (HeLa cells): induction of apoptosis in a dose and time related effect

EHWSYWLRPG-GGGGS
% of apoptotic cells [4]: 7%
induction of MMP / activity on isolated mitochondria (in words) [2]: not active on mitochondria
% of apoptotic cells (Jurkat cells): 8%

GG*CRGDMFG*CG
induction of MMP / activity on isolated mitochondria (in words) [2]: not found inducing MMP

CO[C@H](C/C=C\C=C\CC/C=C/C[C@H](C)/C=C/C(=C\C(=O)O)CC(=O)O)/C(C)=C\C=C(/C)C(=O)O [bongkrekic acid]
effect on Ca2+ induced SSC decrease (in words) [1, 6]: partly affect
effect on Ca2+ induced ΔΨm loss (in words) [1, 6]: strongly reduces
effect on alamethicin induced MMP (in words) [1]: not affected
